# Results reported in US20100016232A1, “Treatment Of Inflammatory Diseases With Mammal Beta Defensins” (Novozymes A/S, priority 2008, published 2010).
# Where no end group is shown, it is not given here.
# What was measured:
# [1] = tested on: TNF production from human peripheral blood mononuclear cells (PBMC); experiment: TNF production from human PBMC, Cytometric Bead Array; assay type: cell-based
# In short: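 Ficoll-isolated PBMC from healthy donors cultured in medium with 2% autologous plasma, stimulated (LPS or LTA) with or without compound for 24 hours at 37° C. Supernatant cytokines quantified by flow-cytometric inflammation bead array, in some experiments by ELISA; viability checked by Alamar Blue.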
# [2] = tested on: IL-10 secretion from PBMC; experiment: IL-10 secretion from PBMC, ELISA; assay type: cell-based, human
# Procedure: (§1) Peripheral blood was drawn from healthy volunteers (with approval from the relevant ethical committee in Denmark). Heparinized blood was diluted 1/1 v/v with RPMI and were subjected to Ficoll density centrifugation within 2 h of drawing. Plasma was collected from the top from individual donors and was kept on ice until it was used at 2% in the culture medium (autologous culture medium). Isolated PBMC were resuspended in autologous culture medium and seeded in 96-well culture plates with 255.000 cells per well in a total of 200 μl. […] The concentrations used for stimulation were optimized on 3 different donors in initial experiments, for LPS two different concentrations were used to be sure to be on a cytokine level that is possible to modulate. In some experiments PBMC were treated with Dexamethason and Indomethacin alone and together with LPS or LTA as a control on downregulation of inflammatory cytokines. The supernatants were collected after incubation at 37° C. for 24 hours, and stored at −80° C. until cytokine measurement. Viability was measured by Alamar Blue (Biosource, DALL 1100) in all experiments and in some cases also by MTS (Promega) according to manufacturer's instruction and was in some experiments also judged by counting of the cells by a Nucleocounter.
# (§2) Cytokine production in supernatants was measured by flow cytometry with a human inflammation cytometric bead array (CBA) according to manufacturer's instructions (BD) on a FACSarray flow cytometer. The following cytokines were measured: IL-8, IL-1β, IL-10, TNF, IL-12 p70, IL-6. In some experiments, cytokines were measured by ELISA kits from R&D systems (IL-10, TNF-α, IL-1β) according to the manufacturer' instruction.
# (§3) In Tables 6, 7 and 8, supernatants from another donor were analysed for cytokines by ELISA instead of by a cytometric bead array by flowcytometry and here the same were observed, although the sensitivity of the assay is lower and the detection limit much higher and therefore the effects were not as significant.
# [3] = tested on: DSS-induced colitis in the mouse; experiment: 10-day DSS-induced colitis, Disease Activity Index (Example 5); assay type: in vivo
# Procedure: Animals were divided into 5 experimental groups.
# Colitis was induced in mice by supplementing their drinking water with DSS 2% for 7 days.
# Daily clinical assessment of DSS-treated animals was carried out, with the calculation of a validated clinical Disease Activity Index (DAI) ranging from 0 to 4 according to the following parameters: stool consistency, presence or absence of rectal bleeding and weight loss:
# Bodyweight loss was calculated as the percent difference between the original bodyweight (Day 1) and the actual bodyweight on each experimental day (2-10).
# The appearance of diarrhoea is defined as mucus/faecal material adherent to anal fur. Rectal bleeding is defined as diarrhoea containing visible blood/mucus or gross rectal bleeding. The maximum score of the DAI each day is 12.
# [4] = tested on: TNF-alfa secretion from PBMC; experiment: TNF-alfa secretion from PBMC, ELISA; assay type: cell-based, human
# Procedure: as §1, §2, §3
# PBMC = PBMC viability, Alamar Blue; assay type: cell-based, human
# Procedure: as §1
# [5] = LPS 0.6 ng/ml, test compound 1 μg/ml, Table 16
# [6] = LPS 0.6 ng/ml, test compound 10 μg/ml, Table 16
# [7] = LPS 0.6 ng/ml, test compound 40 μg/ml, Table 16
# [8] = LPS 20 ng/ml, test compound 1 μg/ml, Table 16
# [9] = LPS 20 ng/ml, test compound 10 μg/ml, Table 16
# [10] = LPS 20 ng/ml, test compound 40 μg/ml, Table 16
substance,measurement,setting,value
"hBD2: human beta defensin 2, SEQ ID NO:2; produced recombinantly in E. coli (Example 1); hBD2 of Tables 16-18 was prepared by chemical synthesis (GIGDPVTCLKSGAICHPVFCPRRYKQIGTCGLPGTKCCKKP; ends and bridges not checked; cysteine pairing not given here; listed as Homo sapiens)",TNF,"[1]; LPS 0.6 ng/ml, hBD2 1 μg/ml, Table 1",944.8 pg/mL
same,TNF,"[1]; LPS 0.6 ng/ml, hBD2 1 μg/ml, Table 11",170 pg/mL
same,TNF,"[1]; LPS 0.6 ng/ml, hBD2 10 μg/ml, Table 1",1076.4 pg/mL
same,TNF,"[1]; LPS 0.6 ng/ml, hBD2 10 μg/ml, Table 11",200 pg/mL
same,TNF,"[1]; LPS 0.6 ng/ml, hBD2 100 μg/ml, Table 1",634.2 pg/mL
same,TNF,"[1]; LPS 0.6 ng/ml, hBD2 100 μg/ml, Table 11",0 pg/mL
same,TNF,"[1]; LPS 0.6 ng/ml, hBD2 1000 μg/ml, Table 11",3 pg/mL
same,TNF,[1]; [5],242 pg/mL
same,TNF % of control,[1]; [5],33%
same,TNF,[1]; [6],304 pg/mL
same,TNF % of control,[1]; [6],42%
same,TNF,[1]; [7],176 pg/mL
same,TNF % of control,[1]; [7],24%
same,TNF,"[1]; LPS 20 ng/ml, hBD2 1 μg/ml, Table 1",1526.9 pg/mL
same,TNF,"[1]; LPS 20 ng/ml, hBD2 1 μg/ml, Table 11",6240 pg/mL
same,TNF,"[1]; LPS 20 ng/ml, hBD2 10 μg/ml, Table 1",1306.6 pg/mL
same,TNF,"[1]; LPS 20 ng/ml, hBD2 10 μg/ml, Table 11",350 pg/mL
same,TNF,"[1]; LPS 20 ng/ml, hBD2 100 μg/ml, Table 1",1733.9 pg/mL
same,TNF,"[1]; LPS 20 ng/ml, hBD2 100 μg/ml, Table 11",38 pg/mL
same,TNF,"[1]; LPS 20 ng/ml, hBD2 1000 μg/ml, Table 11",0 pg/mL
same,TNF,[1]; [8],411 pg/mL
same,TNF % of control,[1]; [8],19%
same,TNF,[1]; [9],132 pg/mL
same,TNF % of control,[1]; [9],6%
same,TNF,[1]; [10],52 pg/mL
same,TNF % of control,[1]; [10],2%
same,TNF,"[1]; LPS 20 ng/ml, treatment 1 μg/ml, Table 21",633 pg/mL
same,TNF,"[1]; LPS 20 ng/ml, treatment 10 μg/ml, Table 21",359 pg/mL
same,TNF,"[1]; LPS 20 ng/ml, treatment 100 μg/ml, Table 21",342 pg/mL
same,TNF,"[1]; LTA 1.25 μg/ml, hBD2 1 μg/ml, Table 1",711.5 pg/mL
same,TNF,"[1]; LTA 1.25 μg/ml, hBD2 1 μg/ml, Table 11",3900 pg/mL
same,TNF,"[1]; LTA 1.25 μg/ml, hBD2 10 μg/ml, Table 1",494.7 pg/mL
same,TNF,"[1]; LTA 1.25 μg/ml, hBD2 10 μg/ml, Table 11",2330 pg/mL
same,TNF,"[1]; LTA 1.25 μg/ml, hBD2 100 μg/ml, Table 1",375.2 pg/mL
same,TNF,"[1]; LTA 1.25 μg/ml, hBD2 100 μg/ml, Table 11",1150 pg/mL
same,TNF,"[1]; LTA 1.25 μg/ml, hBD2 1000 μg/ml, Table 11",110 pg/mL
same,TNF,"[1]; Medium, hBD2 1 μg/ml, Table 1",4.2 pg/mL
same,TNF,"[1]; Medium, hBD2 1 μg/ml, Table 9",3.4 pg/mL
same,TNF,"[1]; Medium, hBD2 1 μg/ml, Table 11",0 pg/mL
same,TNF,"[1]; Medium, hBD2 10 μg/ml, Table 1",2.6 pg/mL
same,TNF,"[1]; Medium, hBD2 10 μg/ml, Table 9",3.7 pg/mL
same,TNF,"[1]; Medium, hBD2 10 μg/ml, Table 11",0 pg/mL
same,TNF,"[1]; Medium, hBD2 100 μg/ml, Table 1",2.9 pg/mL
same,TNF,"[1]; Medium, hBD2 100 μg/ml, Table 9",3.6 pg/mL
same,TNF,"[1]; Medium, hBD2 100 μg/ml, Table 11",0 pg/mL
same,TNF,"[1]; Medium, hBD2 1000 μg/ml, Table 11",0 pg/mL
same,TNF,"[1]; Medium, test compound 1 μg/ml, Table 16",0 pg/mL
same,TNF,"[1]; Medium, test compound 10 μg/ml, Table 16",0 pg/mL
same,TNF,"[1]; Medium, test compound 40 μg/ml, Table 16",0 pg/mL
same,TNF,"[1]; Medium, treatment 1 μg/ml, Table 21",3 pg/mL
same,TNF,"[1]; Medium, treatment 10 μg/ml, Table 21",2 pg/mL
same,TNF,"[1]; Medium, treatment 100 μg/ml, Table 21",2 pg/mL
same,TNF,"[1]; PBMC stimulated with Pam3CSK4 (TLR2-TLR1 ligand), results not shown",able to downregulate TNF
same,TNF,"[1]; PGN 40 μg/ml, hBD2 1 μg/ml, Table 9",809.9 pg/mL
same,TNF,"[1]; PGN 40 μg/ml, hBD2 10 μg/ml, Table 9",362.0 pg/mL
same,TNF,"[1]; PGN 40 μg/ml, hBD2 100 μg/ml, Table 9",274.9 pg/mL
same,IL-10,"[2]; LPS 0.6 ng/ml, hBD2 10 μg/ml",0.04 ng/mL
same,IL-10,"[2]; LPS 0.6 ng/ml, hBD2 100 μg/ml",0.14 ng/mL
same,IL-10,"[2]; LPS 20 ng/ml, hBD2 10 μg/ml",0.34 ng/mL
same,IL-10,"[2]; LPS 20 ng/ml, hBD2 100 μg/ml",0.46 ng/mL
same,DAI score,"[3]; 0.1 mg/kg i.v. daily, Day 1",0.00
same,DAI score,"[3]; 0.1 mg/kg i.v. daily, Day 2",0.20
same,DAI score,"[3]; 0.1 mg/kg i.v. daily, Day 3",0.80
same,DAI score,"[3]; 0.1 mg/kg i.v. daily, Day 4",2.90
same,DAI score,"[3]; 0.1 mg/kg i.v. daily, Day 5",2.80
same,DAI score,"[3]; 0.1 mg/kg i.v. daily, Day 6",3.20
same,DAI score,"[3]; 1 mg/kg i.v. daily, Day 1",0.00
same,DAI score,"[3]; 1 mg/kg i.v. daily, Day 2",0.00
same,DAI score,"[3]; 1 mg/kg i.v. daily, Day 3",0.22
same,DAI score,"[3]; 1 mg/kg i.v. daily, Day 4",2.22
same,DAI score,"[3]; 1 mg/kg i.v. daily, Day 5",2.44
same,DAI score,"[3]; 1 mg/kg i.v. daily, Day 6",2.89
same,DAI score,"[3]; 1 mg/kg i.v. daily, Day 7",2.22
same,DAI score,"[3]; 1 mg/kg i.v. daily, Day 8",3.67
same,DAI score,"[3]; 1 mg/kg i.v. daily, Day 9",5.22
same,DAI score,"[3]; 10 mg/kg i.v. daily, Day 1",0.00
same,DAI score,"[3]; 10 mg/kg i.v. daily, Day 2",0.60
same,DAI score,"[3]; 10 mg/kg i.v. daily, Day 3",1.00
same,DAI score,"[3]; 10 mg/kg i.v. daily, Day 4",3.67
same,DAI score,"[3]; 10 mg/kg i.v. daily, Day 5",3.11
same,DAI score,"[3]; 10 mg/kg i.v. daily, Day 6",3.22
same,DAI score,"[3]; 10 mg/kg i.v. daily, Day 7",2.11
same,DAI score,"[3]; 10 mg/kg i.v. daily, Day 8",4.11
same,DAI score,"[3]; 10 mg/kg i.v. daily, Day 9",6.78
same,DAI score,"[3]; 10 mg/kg i.v. daily, Day 10",7.33
same,TNF-α,"[4]; LPS 0.6 ng/ml, hBD2 1 μg/ml",0.70 ng/mL
same,TNF-α,"[4]; LPS 0.6 ng/ml, hBD2 10 μg/ml",0.59 ng/mL
same,TNF-α,"[4]; LPS 0.6 ng/ml, hBD2 100 μg/ml",0.41 ng/mL
same,TNF-α,"[4]; LPS 20 ng/ml, hBD2 1 μg/ml",1.18 ng/mL
same,TNF-α,"[4]; LPS 20 ng/ml, hBD2 10 μg/ml",0.49 ng/mL
same,TNF-α,"[4]; LPS 20 ng/ml, hBD2 100 μg/ml",0.53 ng/mL
same,TNF-α,"[4]; LTA 1.25 μg/ml, hBD2 1 μg/ml",0.65 ng/mL
same,TNF-α,"[4]; LTA 1.25 μg/ml, hBD2 10 μg/ml",0.27 ng/mL
same,TNF-α,"[4]; LTA 1.25 μg/ml, hBD2 100 μg/ml",0.21 ng/mL
same,"Viability, Alamar Blue","PBMC; LPS 0.6 ng/ml, hBD2 1 μg/ml",4230588 RFU
same,"Viability, Alamar Blue","PBMC; LPS 0.6 ng/ml, hBD2 10 μg/ml",4664362 RFU
same,"Viability, Alamar Blue","PBMC; LPS 0.6 ng/ml, hBD2 100 μg/ml",4831188 RFU
same,"Viability, Alamar Blue","PBMC; LPS 20 ng/ml, hBD2 1 μg/ml",4561739 RFU
same,"Viability, Alamar Blue","PBMC; LPS 20 ng/ml, hBD2 10 μg/ml",4623818 RFU
same,"Viability, Alamar Blue","PBMC; LPS 20 ng/ml, hBD2 100 μg/ml",4765256 RFU
same,"Viability, Alamar Blue","PBMC; LTA 1.25 μg/ml, hBD2 1 μg/ml",4148294 RFU
same,"Viability, Alamar Blue","PBMC; LTA 1.25 μg/ml, hBD2 10 μg/ml",4677870 RFU
same,"Viability, Alamar Blue","PBMC; LTA 1.25 μg/ml, hBD2 100 μg/ml",4664185 RFU
same,"Viability, Alamar Blue","PBMC; Medium, hBD2 1 μg/ml",4064143 RFU
same,"Viability, Alamar Blue","PBMC; Medium, hBD2 10 μg/ml",3683369 RFU
same,"Viability, Alamar Blue","PBMC; Medium, hBD2 100 μg/ml",3950053 RFU
same,cytotoxic effect on the cells,"PBMC; human PBMC, MTS and Alamar Blue, Tables 4 and 5",no cytotoxic effect
